Laboratory results reported in PubChem BioAssay (NCI).
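Dose response: 5 concentrations. Exposure: 48 h. Format: 96-well plates. Endpoint: linear interpolation; highest concentration if not reached. GI50 marks 50% less growth. TGI is the concentration that stops growth completely.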

Key:
Test in all cases: NCI tumour cell line growth inhibition, 48 h
COLO 205 colon = system: COLO 205 colon
A498 renal = system: A498 renal
SK-MEL-28 melanoma = system: SK-MEL-28 melanoma
NCI-H522 lung = system: NCI-H522 lung
ACHN renal = system: ACHN renal
SR leukemia = system: SR leukemia
NCI-H460 lung = system: NCI-H460 lung
HCC-2998 colon = system: HCC-2998 colon

SMILES	GI50 (COLO 205 colon) [µM]	TGI (COLO 205 colon) [µM]	GI50 (A498 renal) [µM]	TGI (A498 renal) [µM]	GI50 (SK-MEL-28 melanoma) [µM]	TGI (SK-MEL-28 melanoma) [µM]	GI50 (NCI-H522 lung) [µM]	TGI (NCI-H522 lung) [µM]	GI50 (ACHN renal) [µM]	TGI (ACHN renal) [µM]	GI50 (SR leukemia) [µM]	GI50 (NCI-H460 lung) [µM]	TGI (NCI-H460 lung) [µM]	GI50 (HCC-2998 colon) [µM]	TGI (HCC-2998 colon) [µM]	TGI (SR leukemia) [µM]
COc1cc2c3c(n(CCCNCC(OC)OC)c(=O)c2cc1OC)-c1cc2c(cc1C3=O)OCO2	14	> 61.1	14	33.9	18.4	36.3	18.2	> 100	5.34	> 37.4	< 0.01	0.0972	20.5			
CC(C)(O)C1CCC(Nc2ccc3ncc(-c4cccc(C(F)(F)F)c4)n3n2)CC1 (stereo not given)	2.62	21.5	1.48	4.49	1.6	3.91	1.73	5.92	2.12	12.3	1.87	2.7	12.1	3.26	> 100	11.1
C[C@]12CC[C@@H]3c4ccc(O)cc4CC[C@H]3[C@@H]1CC[C@@H]2NS(=O)(=O)c1cccc(C(F)(F)F)c1	2.12	4.13	2.7	8.75	5.87	19.1			3.2	11.4	3.98	2.6	6.79	4.58	17.9	27.2
CCN1CCN(CC(=O)Nc2nc3ccc(NCc4ccc(Cl)cc4)cc3s2)CC1	1.82	3.5	4.09	17	1.8	3.31	2.2	5.19	2.22	5.02	2.78	2.18	4.69			17
COc1cc(C(O)c2nc3ccccc3s2)cc(OC)c1OC (stereo not given)	> 100	> 100	3.18	> 100	> 100	> 100	29.2	> 100	65.5	> 100	9.01	30.9	> 100	> 100	> 100	> 100
O=Cc1cn(Cc2cccc(Cl)c2)c2ccccc12	0.355	14	0.135	0.299	15.9	31.1	20.3	45.7	12.9	26.8	23.9	< 0.0112	15.5	12.5	26.2	55.7
COc1ccc2c(c1)c(-c1nc(-c3c[nH]c4ncccc34)cs1)cn2CCCCN1CCOCC1	1.85	3.58	0.217	3.17	1.85	3.4	2.34	4.31	1.79	3.4	2.01	1.99	3.9	1.91	3.7	4.65
